Starred links: 1 amine or outer side, 2 acyl side, 3 side chain; linkers in the order of their positions; H or OH if unused. Non-standard residues stand in square brackets, D forms with d. Residues, ends and D or L forms follow the SMILES beside them. Groups on a side chain read outwards from the residue. *: point of attachment. C18 diacid = O=C(O)CCCCCCCCCCCCCCCCC(=O)*; γGlu = O=C(O)[C@H](CCC(=O)[*:2])N[*:1]; Ac4c = NC1(C(=O)O)CCC1; AEEA = NCCOCCOCC(=O)O; Aib = CC(C)(N)C(=O)O
The compounds below were run against T1, human glucagon receptor (Homo sapiens, UniProt P47871) (assay: Assay (I)(b) glucagon receptor activation, CRE luciferase reporter gene assay in BHK cells). Conditions: without presence of serum albumin; read-out: GlucagonR EC50 (pM), [Assay (I)(b)].
T1 construct: expressed in transfected cells; host or cells: membranes of BHK cells, clone BHK hGCGR A3*25
Assay type: cell-based
Description: The purpose of this example was to test the activity or potency, of the glucagon derivatives of the invention, in vitro. The in vitro potency is the measure of human GLP-1 receptor (GLP-1R) or glucagon receptor (glucagonR) activation, respectively, in a whole cell assay. In vitro potency was determined by measuring the response of human GLP-1 or glucagon receptor, respectively, in a reporter gene assay. The assay was performed in a stably transfected BHK cell line that expresses either the human GLP-1 receptor or the human glucagon receptor and contains the DNA for the cAMP response element (CRE) coupled to a promoter and the gene for firefly luciferase (CRE luciferase). […] When assay incubation was completed, the luciferase substrate (luciferin) was added and the enzyme converted luciferin to oxyluciferin and produces bioluminescence. The luminescence was measured as the readout for the assay. The cells used in this assay (clone pLJ6′-4-25) were BHK cells with BHK570 as a parent cell line expressing the CRE luciferase gene (clone BHK/KZ10-20-48) and were established by further transfection with the human glucagon receptor (clone pLJ6′ in pHZ-1 vector). The cells were cultured at 5% CO2 in DMEM medium with 10% FBS, 1×GlutaMAX, 1 mg/ml G418, 240 nM MTX (methotrexate) and 1% pen/strep (penicillin/streptomycin). They were aliquoted and stored in liquid nitrogen. Before each assay, an aliquot was taken up and washed three times in PBS before being suspended at the desired concentration in assay medium. For 96-well plates the suspension was made to give a final concentration of 5×10EE3 cells/well. The following chemicals were used in the assay: Pluronic F-68 (10%) (Gibco 2404), ovalbumin (Sigma A5503), DMEM w/o phenol red (Gibco 11880-028), 1 M Hepes (Gibco 15630), Glutamax 100× (Gibco 35050) and steadylite plus (PerkinElmer 6016757). Assay Medium consisted of DMEM w/o phenol red, 10 mM Hepes, 1× GlutaMAX, 2% Ovalbumin and 0.2% Pluronic F-68. Cell stocks were thawed in a 37° C. water bath. Cells were washed three times in PBS. The cells were counted and adjusted to 5×10EE3 cells/50 μl (1×10EE5 cells/ml) in Assay Medium. A 50 μl aliquot of cells was transferred to each well in the assay plate. Stocks of the test compounds and reference compounds were diluted to a concentration of […] in Assay Medium. Compounds were diluted 10-fold to give the following concentrations: 2×10EE-6 M, 2×10EE-7 M, 2×10EE-8 M; 2×10EE-9 M, 2×10EE-10 M, 2×10EE-11 M, 2×10EE-12 M and 2×10EE-13 M. For each compound a blank assay medium control was also included. A 50 μl aliquot of compound or blank was transferred from the dilution plate to the assay plate. Compounds were tested at the following final concentrations: 1×10EE-6 M, 1×10EE-7 M, 1×10EE-8 M; 1×10EE-9 M, 1×10EE-10 M, 1×10EE-11 M and 1×10EE-12 M and 1×10EE-13 M. The assay plate was incubated for 3 h in a 5% CO2 incubator at 37° C. The assay plate was removed from the incubator and allowed to stand at room temperature for 15 min. A 100 μl aliquot of steadylite plus reagent was added to each well of the assay plate (reagent is light sensitive). Each assay plate was covered with aluminum foil to protect it from light and shaken for 30 min at room temperature. Each assay plate was read in a Perkin Elmer TopCount NXT instrument. The data from the TopCount instrument was transferred to GraphPad Prism software. The software performed a non-linear regression (log(agonist) vs response-Variable slope (four parameter)). EC50 values were calculated by the software and reported in pM.

T1 sequence (P47871 26-477): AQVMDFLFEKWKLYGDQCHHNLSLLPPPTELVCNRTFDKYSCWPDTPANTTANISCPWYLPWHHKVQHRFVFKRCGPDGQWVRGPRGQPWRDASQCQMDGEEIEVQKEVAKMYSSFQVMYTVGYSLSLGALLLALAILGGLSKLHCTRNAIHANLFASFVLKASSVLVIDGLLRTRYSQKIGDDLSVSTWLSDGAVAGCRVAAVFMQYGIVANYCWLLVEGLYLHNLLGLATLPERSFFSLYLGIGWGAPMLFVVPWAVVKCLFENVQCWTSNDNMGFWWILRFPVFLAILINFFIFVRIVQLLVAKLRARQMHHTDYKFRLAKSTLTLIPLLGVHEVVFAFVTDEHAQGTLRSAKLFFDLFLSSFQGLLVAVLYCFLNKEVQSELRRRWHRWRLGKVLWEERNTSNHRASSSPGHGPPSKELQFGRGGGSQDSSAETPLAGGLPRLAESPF

EC50 [pM] | SMILES
12 | CC[C@H](C)[C@H](NC(=O)[C@H](CC(C)C)NC(=O)[C@H](Cc1c[nH]c2ccccc12)NC(=O)[C@H](CCCCNC(=O)COCCOCCNC(=O)COCCOCCNC(=O)CC[C@H](NC(=O)CC[C@H](NC(=O)CC[C@H](NC(=O)CCCCCCCCCCCCCCCCC(=O)O)C(=O)O)C(=O)O)C(=O)O)NC(=O)[C@@H](NC(=O)[C@H](Cc1ccccc1)NC(=O)[C@H](CCC(=O)O)NC(=O)[C@H](CCCNC(=N)N)NC(=O)[C@H](C)NC(=O)[C@H](CCCNC(=N)N)NC(=O)[C@H](CCCNC(=N)N)NC(=O)[C@H](C)NC(=O)[C@H](CC(=O)O)NC(=O)[C@H](CC(C)C)NC(=O)[C@H](Cc1ccc(O)cc1)NC(=O)[C@H](CCCCN)NC(=O)[C@H](CO)NC(=O)[C@H](Cc1ccc(O)cc1)NC(=O)[C@H](CC(=O)O)NC(=O)[C@H](CO)NC(=O)[C@@H](NC(=O)[C@H](Cc1ccccc1)NC(=O)[C@@H](NC(=O)CNC(=O)[C@H](CCC(N)=O)NC(=O)C(C)(C)NC(=O)[C@@H](N)Cc1c[nH]cn1)[C@@H](C)O)[C@@H](C)O)C(C)C)C(=O)N[C@@H](CO)C(=O)N[C@H](C(N)=O)[C@@H](C)O [Chem. 4, N^ε24-[2-[2-[2-[[2-[2-[2-[[(4S)-4-carboxy-4-[[(4S)-4-carboxy-4-[[(4S)-4-carboxy-4-(17-carboxyheptadecanoylamino)butanoyl]amino]butanoyl]amino]butanoyl]amino]ethoxy]ethoxy]acetyl]amino]ethoxy]ethoxy]acetyl]-[Aib2,Ala16,Arg20,Glu21,Lys24,Ile27,Ser28]-Glucagon amide] (H-H[Aib]QGTFTSDYSKYLDARRAREFVK([AEEA-AEEA-γGlu-γGlu-γGlu-C18 diacid])WLIST-NH2; N-terminus assumed)
32 | CC[C@H](C)[C@H](NC(=O)[C@H](CC(C)C)NC(=O)[C@H](Cc1c[nH]c2ccccc12)NC(=O)[C@H](CCC(N)=O)NC(=O)[C@@H](NC(=O)[C@H](Cc1ccccc1)NC(=O)[C@H](CC(=O)O)NC(=O)[C@H](CCC(N)=O)NC(=O)[C@H](C)NC(=O)[C@H](CCCNC(=N)N)NC(=O)[C@H](CCCNC(=N)N)NC(=O)[C@H](C)NC(=O)[C@H](CC(=O)O)NC(=O)[C@H](CC(C)C)NC(=O)[C@H](Cc1ccc(O)cc1)NC(=O)[C@H](CCCCN)NC(=O)[C@H](CO)NC(=O)[C@H](CC(C)C)NC(=O)[C@H](CC(=O)O)NC(=O)[C@H](CO)NC(=O)[C@@H](NC(=O)[C@H](Cc1ccccc1)NC(=O)[C@@H](NC(=O)CNC(=O)[C@H](CCC(N)=O)NC(=O)C(C)(C)NC(=O)[C@@H](N)Cc1c[nH]cn1)[C@@H](C)O)[C@@H](C)O)C(C)C)C(=O)N[C@@H](CCCCNC(=O)COCCOCCNC(=O)COCCOCCNC(=O)CC[C@H](NC(=O)CC[C@H](NC(=O)CC[C@H](NC(=O)CCCCCCCCCCCCCCCCC(=O)O)C(=O)O)C(=O)O)C(=O)O)C(=O)N[C@H](C(N)=O)[C@@H](C)O [Chem. 7, N^ε28-[2-[2-[2-[[2-[2-[2-[[(4S)-4-carboxy-4-[[(4S)-4-carboxy-4-[[(4S)-4-carboxy-4-(17-carboxyheptadecanoylamino)butanoyl]amino]butanoyl]amino]butanoyl]amino]ethoxy]ethoxy]acetyl]amino]ethoxy]ethoxy]acetyl]-[Aib2,Leu10,Ala16,Ile27,Lys28]-Glucagon amide] (H-H[Aib]QGTFTSDLSKYLDARRAQDFVQWLIK([AEEA-AEEA-γGlu-γGlu-γGlu-C18 diacid])T-NH2; N-terminus assumed)
32 | CC[C@H](C)[C@H](NC(=O)[C@H](CC(C)C)NC(=O)[C@H](Cc1c[nH]c2ccccc12)NC(=O)[C@H](CCC(N)=O)NC(=O)[C@@H](NC(=O)[C@H](Cc1ccccc1)NC(=O)[C@H](CCC(=O)O)NC(=O)[C@H](CCCNC(=N)N)NC(=O)[C@H](C)NC(=O)[C@H](CCCNC(=N)N)NC(=O)[C@H](CCCNC(=N)N)NC(=O)[C@H](CO)NC(=O)[C@H](CCC(=O)O)NC(=O)[C@H](CC(C)C)NC(=O)[C@H](Cc1ccc(O)cc1)NC(=O)[C@H](CCCCN)NC(=O)[C@H](CO)NC(=O)[C@H](CC(C)C)NC(=O)[C@H](CC(=O)O)NC(=O)[C@H](CO)NC(=O)[C@@H](NC(=O)[C@H](Cc1ccccc1)NC(=O)[C@@H](NC(=O)CNC(=O)[C@H](CCC(N)=O)NC(=O)C1(NC(=O)[C@@H](N)Cc2c[nH]cn2)CCC1)[C@@H](C)O)[C@@H](C)O)C(C)C)C(=O)N[C@@H](CCCCNC(=O)COCCOCCNC(=O)COCCOCCNC(=O)CC[C@H](NC(=O)CC[C@H](NC(=O)CCCCCCCCCCCCCCCCC(=O)O)C(=O)O)C(=O)O)C(=O)N[C@H](C(N)=O)[C@@H](C)O [Chem. 18, N^ε28-[2-[2-[2-[[2-[2-[2-[[(4S)-4-carboxy-4-[[(4S)-4-carboxy-4-(17-carboxyheptadecanoylamino)butanoyl]amino]butanoyl]amino]ethoxy]ethoxy]acetyl]amino]ethoxy]ethoxy]acetyl]-[Acb2,Leu10,Glu15,Arg20,Glu21,Ile27,Lys28]-Glucagon amide] (H-H[Ac4c]QGTFTSDLSKYLESRRAREFVQWLIK([AEEA-AEEA-γGlu-γGlu-C18 diacid])T-NH2)
66 | CC[C@H](C)[C@H](NC(=O)[C@H](CC(C)C)NC(=O)[C@H](Cc1c[nH]c2ccccc12)NC(=O)[C@H](CCC(N)=O)NC(=O)[C@@H](NC(=O)[C@H](Cc1ccccc1)NC(=O)[C@H](CC(=O)O)NC(=O)[C@H](CCCNC(=N)N)NC(=O)[C@H](C)NC(=O)[C@H](CCCNC(=N)N)NC(=O)[C@H](CCCNC(=N)N)NC(=O)[C@H](C)NC(=O)[C@H](CC(=O)O)NC(=O)[C@H](CC(C)C)NC(=O)[C@H](Cc1ccc(O)cc1)NC(=O)[C@H](CCCCN)NC(=O)[C@H](CO)NC(=O)[C@H](CC(C)C)NC(=O)[C@H](CC(=O)O)NC(=O)[C@H](CO)NC(=O)[C@@H](NC(=O)[C@H](Cc1ccccc1)NC(=O)[C@@H](NC(=O)CNC(=O)[C@H](CCC(N)=O)NC(=O)C(C)(C)NC(=O)[C@@H](N)Cc1c[nH]cn1)[C@@H](C)O)[C@@H](C)O)C(C)C)C(=O)N[C@@H](CO)C(=O)N[C@@H](CCCCNC(=O)CC[C@H](NC(=O)CC[C@H](NC(=O)COCCOCCNC(=O)COCCOCCNC(=O)CC[C@H](NC(=O)CCCCCCCCCCCCCCCCC(=O)O)C(=O)O)C(=O)O)C(=O)O)C(N)=O [Chem. 27, N^ε29-[(4S)-4-carboxy-4-[[(4S)-4-carboxy-4-[[2-[2-[2-[[2-[2-[2-[[(4S)-4-carboxy-4-(17-carboxyheptadecanoylamino)butanoyl]amino]ethoxy]ethoxy]acetyl]amino]ethoxy]ethoxy]acetyl]amino]butanoyl]amino]butanoyl]-[Aib2,Leu10,Ala16,Arg20,Ile27,Ser28,Lys29]-Glucagon amide] (H-H[Aib]QGTFTSDLSKYLDARRARDFVQWLISK([γGlu-γGlu-AEEA-AEEA-γGlu-C18 diacid])-NH2; N-terminus assumed)
